Laboratory results: patent US5935636A, “Trehalose and its production and use” (Kabushiki Kaisha Hayashibara Seibutsu Kagaku Kenkyujo, priority 1994, dated 1999)
Where a name gives a salt, the structure may show the parent alone. Read-outs that look alike come from different tables or passages of the source.

Tests used:
[1] = molecular target: T1, maltose/trehalose conversion enzyme derived from Pimelobacter species R48 (Pimelobacter sp., UniProt P72235); test: Inhibition of enzymatic activity; type: biochemical
T1 construct: The culture obtained in Experiment 1 was centrifugally separated to collect the cells; made in house; host or cells: native producer Pimelobacter species R48 (FERM BP-4315), purified from disrupted cells
T1 sequence (P72235 1-573): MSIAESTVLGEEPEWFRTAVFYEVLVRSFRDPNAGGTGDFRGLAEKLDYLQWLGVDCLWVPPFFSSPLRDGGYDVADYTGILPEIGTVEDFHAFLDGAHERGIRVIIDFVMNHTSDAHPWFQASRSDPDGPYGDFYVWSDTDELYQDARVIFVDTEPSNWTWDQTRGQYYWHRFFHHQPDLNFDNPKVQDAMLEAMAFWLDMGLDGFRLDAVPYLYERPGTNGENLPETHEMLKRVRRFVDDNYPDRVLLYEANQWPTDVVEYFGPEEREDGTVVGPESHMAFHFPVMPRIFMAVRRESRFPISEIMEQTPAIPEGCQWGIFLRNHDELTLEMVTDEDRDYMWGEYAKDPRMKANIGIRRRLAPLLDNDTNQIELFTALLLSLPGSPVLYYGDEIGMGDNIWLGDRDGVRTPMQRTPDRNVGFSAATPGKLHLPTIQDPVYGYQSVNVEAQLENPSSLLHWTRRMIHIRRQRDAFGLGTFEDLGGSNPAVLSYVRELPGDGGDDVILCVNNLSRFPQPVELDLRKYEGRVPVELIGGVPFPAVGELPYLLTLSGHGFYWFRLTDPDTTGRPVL
Description: (§1) Maltose/trehalose conversion enzymes are assayed as follows: 1 ml of 20 w/v % maltose as substrate in 10 mM phosphate buffer (pH7.0) is added with 1 ml enzyme liquid, allowed to react at 25° C., 35° C. or 60° C. for 60 minutes and heated at 100° C. for 10 minutes to suspend the reaction. The reaction liquid is accurately diluted by 11-times in 50 mM phosphate buffer (pH7.5) and 0.4 ml of the diluted liquid is added with 0.1 ml of 1 unit/ml trehalase solution, incubated at 45° C. for 120 minutes and determined for glucose level by the glucose oxidase method. […] The amount of the trehalose formed by maltose/trehalose conversion enzyme is estimated with the increased amount of glucose as determined by the above measurement and one unit of the enzyme is defined as the amount of enzyme that forms one micromole of trehalose for one minute.
(§2) Effects of temperature and pH on the activity of the enzyme were investigated in accordance with the assay method. […] The thermal stability of the enzyme was determined by incubating the enzyme in 50 mM phosphate buffer (pH7.0) at different temperatures for 60 minutes, cooling with water and assaying the residual activities. While the pH stability was determined by incubating at 20° C. for 60 minutes in 50 mM phosphate buffer with different pH levels, adjusting to pH7.0 and assaying the residual enzyme activities.

[2] = tested on: maltose/trehalose conversion enzyme derived from Pseudomonas putida H262; type: biochemical
Description: as §1
as §2, with “35°” for “20°”

[3] = molecular target: T2, maltose/trehalose conversion enzyme derived from Thermus aquaticus (ATCC33923) (Thermus thermophilus, UniProt O06458); test: Inhibition of enzymatic activity; type: biochemical
T2 construct: The culture obtained in Experiment 15 was centrifugally separated to collect the cells; made in house; host or cells: native producer Thermus aquaticus (ATCC33923), purified from disrupted cells
T2 sequence (O06458 1-963): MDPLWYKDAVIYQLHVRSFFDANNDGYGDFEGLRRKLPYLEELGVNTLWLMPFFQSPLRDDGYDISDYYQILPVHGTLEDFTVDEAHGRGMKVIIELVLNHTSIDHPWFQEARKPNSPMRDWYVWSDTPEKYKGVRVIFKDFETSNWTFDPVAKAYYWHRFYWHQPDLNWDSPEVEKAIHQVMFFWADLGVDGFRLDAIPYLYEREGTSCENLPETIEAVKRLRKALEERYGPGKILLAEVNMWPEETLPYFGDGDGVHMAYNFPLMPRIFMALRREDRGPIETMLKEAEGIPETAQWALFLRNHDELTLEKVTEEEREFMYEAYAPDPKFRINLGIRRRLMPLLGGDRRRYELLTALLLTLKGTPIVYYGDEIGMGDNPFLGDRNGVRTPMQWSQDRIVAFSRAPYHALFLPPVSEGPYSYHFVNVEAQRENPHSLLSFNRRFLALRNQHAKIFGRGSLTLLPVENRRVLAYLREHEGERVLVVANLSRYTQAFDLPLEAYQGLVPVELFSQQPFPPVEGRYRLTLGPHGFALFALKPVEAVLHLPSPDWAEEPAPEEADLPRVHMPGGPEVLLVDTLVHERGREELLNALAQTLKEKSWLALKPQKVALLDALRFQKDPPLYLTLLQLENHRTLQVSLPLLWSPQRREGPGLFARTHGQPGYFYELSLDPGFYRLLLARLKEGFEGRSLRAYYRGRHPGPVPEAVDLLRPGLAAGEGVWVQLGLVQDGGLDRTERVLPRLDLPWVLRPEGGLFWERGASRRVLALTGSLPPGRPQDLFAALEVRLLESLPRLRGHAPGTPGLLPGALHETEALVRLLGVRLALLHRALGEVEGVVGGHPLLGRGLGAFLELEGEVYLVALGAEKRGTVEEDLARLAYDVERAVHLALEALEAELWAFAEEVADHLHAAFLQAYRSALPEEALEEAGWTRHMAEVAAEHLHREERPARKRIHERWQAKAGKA
Description: as §1
as §2, with “60°” for “20°”

[4] = molecular target: T3, purified maltose/trehalose conversion enzyme from Pimelobacter species R48 (Pimelobacter sp., UniProt P72235); test: Action on a variety of saccharides (substrate feasibility, TLC); type: biochemical; settings: 20° C., pH7.0, 24 hours
T3 construct: The culture obtained in Experiment 1 was centrifugally separated to collect the cells; made in house; host or cells: native producer Pimelobacter species R48 (FERM BP-4315), purified from disrupted cells
T3 sequence (P72235 1-573): T1 sequence (P72235 1-573)
Description: (§3) A variety of saccharides were tested for feasibility as substrate.
(§4) Each solution was added with 2 units/g substrate solid of a purified maltose/trehalose conversion enzyme obtained by the method in Experiment 2, adjusted to give respective substrate concentrations of 5 w/v % and reacted at 20° C. and pH7.0 for 24 hours. Before and after the reaction the solutions were subjected to thin-layer chromatography (TLC) on "[…] 60", an aluminum plate, width and length of 20 cm respectively, commercialized by Merck & Co., Inc., New Jersey, USA, to check the enzymatic action on respective saccharides. TLC was developed at ambient temperature with a mixture solvent of 1-butanol, pyridine and water (6:4:1 by volume). Coloration was carried out by first spraying 20% sulfuric acid/methanol solution, then heating at 110° C. for 10 minutes.

[5] = tested on: purified enzyme from Pseudomonas putida H262; test: as above; type: biochemical; settings: method of Experiment 4, reaction temperature 35° C.
Description: as §3, §4
A variety of saccharides were tested for feasibility as substrate for the purified enzyme from Pseudomonas putida H262 obtained in Experiment 10 in accordance with the method in Experiment 4 except that the reaction temperature was set to 35° C. As the result, like the enzyme from Pimelobacter species R48, the enzyme from Pseudomonas putida H262 acted on only maltose and trehalose to convert maltose to trehalose as well as to convert trehalose to maltose.

[6] = tested on: partially-purified enzymes derived from conventional microorganisms of the genus Thermus; test: Action on a variety of saccharides, partially-purified enzymes; type: biochemical; settings: method of Experiment 18
Description: Among conventional microorganisms, the specified microorganisms which had been confirmed for production of the maltose/trehalose conversion enzyme according to the present invention were cultivated in flasks for 48 hours in accordance with the method in Experiment 15. Respective cultures were checked for enzymatic activity and then subjected to cell disrupter in accordance with the method in Experiment 16 and the supernatants were dialyzed to obtain partially-purified enzymes which were then investigated for properties in accordance with the method in Experiment 17.

[7] = Physicochemical properties of trehalose preparations: solubility; settings: in 25° C. water
Description: A high-purity trehalose prepared by the method in Experiment 8 was tested for physicochemical properties. […] These physical values were in good agreement with those of a simultaneously tested commercially-available crystalline trehalose hydrate, a product of Wako Pure Chemical Industries, Ltd., Osaka, Japan.

[8] = Test for assimilation in vivo (blood sugar and insulin levels); settings: healthy three men
Description: In accordance with the method reported by Atsuji et al., Rinsho Eiyo (Clinical Nutrition), Vol.41, No.2, pp.200-208 (1972), 30g of the high-purity trehalose, purity of 99.8%, prepared in Experiment 8 was prepared into 20 w/v % aqueous solution and orally administered to healthy three men, age of 26, 27 and 30 years, after which their bloods were periodically sampled and measured for blood sugar and insulin levels. Glucose was used as control. […] Thus the trehalose and saccharide containing the same are suitable as saccharide source for energy supplement.

[9] = tested on: mice; test: Acute toxicity test; type: in vivo; settings: orally administered in mice, possible highest dose
Description: An acute toxicity test was conducted on a high-purity trehalose prepared in Example A-6, where it was orally administered in mice. As the result, trehalose was a low toxic substance causing no death even in the possible highest dose. Thus its LD50 would be briefly 50 g/kg or higher.

[10] = 30 g as 20 w/v % aqueous solution, oral

Row | SMILES | Inhibition of activity ([1]; 1 mM) | Inhibition of activity ([2]; 1 mM) | Inhibition of activity ([3]; 1 mM) | action of the enzyme on saccharides (in words) [4] | action of the enzyme on saccharides (in words) [5] | action of the enzymes on saccharides (in words) [6] | further results
1 | [Cu+2] [Cu^2+] | Inhibited | Inhibited | Inhibited | – | – | – | Inhibition of activity ([3]; 1 mM, listed as C^2+): inhibited
2 | [Hg+2] [Hg^2+] | Inhibited | Inhibited | Inhibited | – | – | – | –
3 | OC[C@H]1O[C@H](O[C@H]2[C@H](O)[C@@H](O)[C@H](O)O[C@@H]2CO)[C@H](O)[C@@H](O)[C@@H]1O [Maltose] | – | – | – | acted on | acted on | acted on | –
4 | NC(CO)(CO)CO [Tris-HCl buffer, Tris-HCl] | – | – | – | – | – | – | Inhibition of activity [1]: Inhibited; Inhibition of activity [2]: Inhibited; Inhibition of activity [3]: Inhibited
5 | OC[C@H]1O[C@H](O[C@H]2O[C@H](CO)[C@@H](O)[C@H](O)[C@H]2O)[C@H](O)[C@@H](O)[C@@H]1O [trehalose, alpha,alpha-trehalose] | – | – | – | acted on | acted on | acted on | solubility as anhydrous substance [7]: 77.0 g; time at which blood sugar level reached maximum after administration [8, 10]: 0.5 to 1 h; time at which insulin level reached maximum after administration [8, 10]: 0.5 to 1 h; digestion, absorption and utilization (in words) ([8]; 30 g oral, glucose as control): readily digested and absorbed and then metabolized and utilized as energy source; death in acute toxicity test [9]: no death
